Entries after “also recorded” stand apart in the source; their conditions may differ. Read-outs that look alike come from different tables or passages of the source.
Columns and labels:
[1] = test system: Wt-1 positive cardiac progenitors; assay: Immunohistochemistry, Wt-1 positive progenitor cells at infarction border; type: in vivo, mouse; settings: border of the infarction, 21 days / three weeks after peptide injections
Text: (§1) Animals and Surgical procedures. Mice: Myocardial infarctions were produced in seventy C57BL/6J male mice at 16 weeks of age (25-30 g) by ligation of the left anterior descending (LAD) coronary artery as described (Garner et al., 2003). All animal protocols were reviewed and approved by the University of Texas Southwestern Medical School Institutional Animal Care Advisory Committee and were in compliance with the rules governing animal use as published by the NIH. Mice were sedated in an isoflurane chamber (5%) for 60 seconds until self-designed coaxial mask could be safely applied. The mask supplied continuous isoflurane (2.0%) and oxygen (98.0%) under positive pressure from a Harvard small animal respirator throughout the procedures. […] Effective doses of the peptides were calculated based on optimal in vitro cell migration effect and on biodistribution calculations of full length TB4 (Mora et al., 1997). […]
(§2) Immunohistochemistry. Adult mouse cardiac tissue was fixed in 4% paraformaldehyde and sections were analyzed by immunohistochemistry. […] Number of sm a-actin positive capillaries and Wt-1 positive cells were counted at the infarction border zone in high power photographs at all levels of the sections in three peptide, TB4 and PBS treated hearts respectively.

mature coronary vessels = assay: Immunohistochemistry, smooth muscle α-actin positive vessels at infarction border zone; type: in vivo, mouse
Text: Animals and Surgical procedures. Mice: Myocardial infarctions were produced in seventy C57BL/6J male mice at 16 weeks of age (25-30 g) by ligation of the left anterior descending (LAD) coronary artery as described (Garner et al., 2003). All animal protocols were reviewed and approved by the University of Texas Southwestern Medical School Institutional Animal Care Advisory Committee and were in compliance with the rules governing animal use as published by the NIH. Mice were sedated in an isoflurane chamber (5%) for 60 seconds until self-designed coaxial mask could be safely applied. The mask supplied continuous isoflurane (2.0%) and oxygen (98.0%) under positive pressure from a Harvard small animal respirator throughout the procedures. Immediately after ligation mice were injected with 200 ng of peptide in […] or […] PBS in collagen intracardially in the infarction border, and with […] PBS intraperitoneally as described (Bock-Marquette et al., 2004). Intraperitoneal injections were repeated every three days after ligation. Effective doses of the peptides were calculated based on optimal in vitro cell migration effect and on biodistribution calculations of full length TB4 (Mora et al., 1997). The inventors administered buprenorphine (0.05 mg/kg) for post-operative pain control. Hearts were removed 1, 14 and 21 days after ligation and processed for further investigations.
Immunohistochemistry. Adult mouse cardiac tissue was fixed in 4% paraformaldehyde and sections were analyzed by immunohistochemistry. Hearts were sectioned at eight levels from the base to the apex. Serial sections were immunostained with primary antibodies against Pecam-1 and Wt-1 (1:50) (Santa Cruz), Smooth muscle a-actin (1:220) (Sigma), Sarcomeric a-actinin (1:200) (Sigma), Connexin43 (1:200) (Invitrogen), pS368-Connexin43 (1:200) (Cell Signaling Technology) as recommended by the manufacturer. Terminal deoxynucleotidyl transferase dUTP nick end labeling (TUNEL) assay was performed using In Situ Cell Detection kit (Roche). Number of sm a-actin positive capillaries and Wt-1 positive cells were counted at the infarction border zone in high power photographs at all levels of the sections in three peptide, TB4 and PBS treated hearts respectively.

cardiomyocytes = assay: TUNEL assay on hearts after coronary ligation; type: in vivo, mouse; settings: 24 h after ligation
Text: as §1, §2

keratinocytes = settings: within four to five hours after treatment, compared to untreated keratinocytes; cited from earlier work
full thickness wound = settings: cited from earlier work; for increase of epithelial layer restoration in the wound: topical or injected, compared to untreated
myocardial cells = assay: Beating frequency of myocardial cells in embryonic cardiac explants on collagen gel; type: cell-based, mouse; settings: 300 ng peptide or 100 ng TB4; normalized to PBS and TB4 controls (TB4 = 100.00)
Experimental: In vitro embryonic cardiac cell migration assay. The outflow tract of the heart was dissected from E11.5 wild-type mouse embryos and placed on rat-tail collagen matrix (Roche) endothelial layer facing down as described (Bock-Marquette et al., 2004; Runyan and Markwald, 1983). After 10 h of attachment, three independent explants were incubated with 300 ng of peptide #1-17, 100 ng of TB4, or 3 μl PBS in […] OPTIMEM medium (Invitrogen/Gibco) respectively. Medium and protein were changed every two days. To monitor migration distance photos were taken daily using Nikon DXM1200F microscope at 4× magnification. Cell migration distance was quantified by ImageJ software (http at rsb.info.nih.gov/ij/) in three separate explants and three measurements for each treatment respectively. Beating frequency of myocardial cells was counted three times at 7-15 days of treatment. Calculations were normalized to PBS and TB4 treated positive and negative controls. After 15 days at 37° C. in 5% CO2, explants were fixed in 4% paraformaldehyde in PBS for 10 min at room temperature. Explants were stored at 4° C. in PBS for further immunocytochemical investigations.

Connexin43 = Connexin43 expression (Western blot) and localization (immunohistology) in infarcted hearts; type: in vivo, mouse
Text: as §1, with “applied.” for “applied. The mask supplied continuous isoflurane (2.0%) and oxygen (98.0%) under positive pressure from a Harvard small animal respirator throughout the procedures.”
Western blot. […] The protein fraction was isolated from the interphase of the Trizol purification as recommended by the manufacturer; 10 μg of the total protein was loaded and analyzed by Western blot with protein-specific primary antibodies: VEGF, p-Marcks, p-Akt, and GAPDH (1:100) (Santa Cruz), Connexin43 (1:50) (Invitrogen), N-Cadherin (1:5000) (BD Biosciences) and pS368-Connexin43 (1:1000) (Cell Signaling Technology).
Immunohistochemistry. Adult mouse cardiac tissue was fixed in 4% paraformaldehyde and sections were analyzed by immunohistochemistry. […]

Thymosin β4 [TB4]
number of Wt-1 positive cells [1]: increased significantly; also recorded: significant increase | number of mature, smooth muscle α-actin positive vessels (mature coronary vessels; 21 days / three weeks, compared to PBS): increase the number of mature, smooth muscle a-actin positive vessels | number of mature coronary vessels (mature coronary vessels; two weeks after treatment, compared to PBS (FIG. 10)): increases | TUNEL positive cardiomyocytes (myocardial cell death) (cardiomyocytes): significant decrease of myocardial cell death | increase of keratinocyte migration (keratinocytes): two to threefold | increase of epithelial layer restoration in the wound (full thickness wound; by day four): 42% | increase of epithelial layer restoration in the wound (full thickness wound; by day seven): 61% | wound contraction (full thickness wound; compared to untreated wounds): more than 11% | collagen deposition in the wound and angiogenesis (full thickness wound; rat, in vivo): stimulated collagen deposition | frequency of myocardial beating (myocardial cells): 100.00+/−5.03 beats/75 sec | Cx43 localization (Connexin43; border zone of cardiac infarction): stayed primarily at the intercalated discs; also recorded: mainly localized to the intercalated discs | Cx43 expression (Connexin43; infarcted cores, 21 days after infarction): significant increase in Cx43 expression; also recorded: significant increase in Cx43 level

Reference: US20110251128A1, “THYMOSIN Beta4 PEPTIDES PROMOTE TISSUE REGENERATION” (The Board of Regents of the University of Texas System, priority 2010, published 2011)
